Reference: patent US20250043349A1, “DEORPHANIZING ODORS USING SINGLE CELL SEQUENCING” (PRESIDENT AND FELLOWS OF HARVARD COLLEGE, priority 2021, published 2025)

How the values were obtained:
[1] = test system: M72 (Olfr160); assay: Act-Seq activation score in OSNs expressing M72; assay type: in vivo, mouse; conditions: compared with acetophenone
Procedure: Act-Seq (Wu et al., 2017) was performed following odor exposure to quantify odor-evoked responses in each OSN subtype (defined by their expressed OR) across the entire OR repertoire. Mice were habituated to a reversed light cycle for at least for 1 week before odor exposure, transferred to a new disposable cage with regular bedding/food and kept overnight in a satellite animal facility. On the experimental day, each mouse was first transferred to a new empty disposable cage during the dark cycle and habituated for 20 minutes. Empty cages were used to avoid any activation by odorants present within the environments in which the mice were housed. Odors were added to a piece of filter paper (100 μL of odorant) in a 35 mm petri dish and a cotton ball (200 μL of odorant) and placed in each cage. […]
The remaining 169 activation genes that were also considered as HVGs often had weak loadings across multiple GEPs. […] To summarize the effects of odor activation across this set of activation genes, the TPT-expression of these activation genes were z-scored (using means and standard deviations for these genes in the control, acetophenone, and octanal datasets, identified by subsampling equal numbers of cells across all ORs expressed in at least 6 cells across 100 restarts). […] PCA was performed on the differences in z-scored activation gene expression between control and odor conditions. […]

[2] = test system: M72 receptor; conditions: Arneodo et al. 2018; Zhang et al. 2012; cited from earlier work
[3] = target: T1, OR10A6 (Homo sapiens, UniProt Q8NH74); conditions: previous study (doi.org/10.3390/molecules25204743); cited from earlier work
T1 sequence (Q8NH74 1-314): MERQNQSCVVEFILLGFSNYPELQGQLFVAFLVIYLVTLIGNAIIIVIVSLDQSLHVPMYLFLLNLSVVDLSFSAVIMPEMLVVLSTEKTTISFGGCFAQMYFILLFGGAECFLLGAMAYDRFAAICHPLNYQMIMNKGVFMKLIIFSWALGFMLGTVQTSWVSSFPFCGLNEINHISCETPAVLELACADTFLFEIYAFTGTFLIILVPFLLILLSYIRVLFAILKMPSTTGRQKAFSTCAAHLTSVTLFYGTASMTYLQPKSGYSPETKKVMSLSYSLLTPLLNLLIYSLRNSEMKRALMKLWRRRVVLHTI

[4] = target: T1, OR10A6; assay: In vivo human act-seq: nasal swab after 1 hour exposure, IEG expression in OSNs; parameters: endogenous in cells; host or cells: olfactory sensory neurons of a human subject, exposed in vivo and collected by nasal swab; conditions: human subject
Procedure: FIG. 16A-16D show in vivo human act-seq data. FIG. 16A depicts a UMAP plot showing olfactory cells obtained from a human subject using a nasal swab after 1 hour exposure to 2-phenylethanol, which smells like rose oil. 1 hour exposure is performed by asking the subject to sniff the odor vial every 2-5 minutes. All major olfactory cell types were identified. OSN: olfactory sensory neuron lineage (progenitors and immature or mature neurons). SUS: sustentacular cells. HBC: horizontal basal cell. MV: microvillar cells. BG: Bowman's gland cells. FIG. 16B examines total count normalized expression of GFY gene (a mature OSN marker) in the UMAP plot. FIG. 16C examines total count normalized expression of immediate early genes (IEG) in OSNs that expressed odorant receptors (OR). […] Horizontal bars indicate mean across cells.

[5] = test system: olfactory bulb glomeruli; assay: In vivo olfactory bulb imaging of OSN axons (GCaMP glomerular odor responses); parameters: species or system mouse; conditions: odor panel, anesthetized mice
Procedure: All surgical procedures were performed in accordance with the guidelines provided by IACUC at Harvard Medical School. Prior to surgery. 4-6 weeks old Omp-IRES-Cre: Ai951) (GCaMP6f) mice, were subcutaneously injected with the analgesic Buprenorphine-SR (1 mg/kg) and anesthetized 1-2 hours later with isoflurane (3% induction. 1-2% maintenance). The skin overlying the left olfactory bulb was retracted and the underlying periosteum was scraped off with a scalpel. The skull was subsequently cleaned with saline and allowed to dry. A 2.5 mm circular craniotomy was made using a biopsy punch (Integra Miltex) taking care not to damage the underlying dura. Gelfoam saturated with cold saline was placed over the craniotomy to reduce swelling and suppress minor bleeds. A custom cranial window was constructed using two circular coverslips (Warner Instruments, 3 mm. #1 thickness). […]
Chronic imaging of the dorsal surface of the olfactory bulb was performed after recovery from the surgery (1-2 weeks) under ketamine (100 mg/kg) and xylazine (10 mg/kg) induced anesthesia, to specifically isolate responses in OSN axons with less modulation from local interneurons and long-range cortical feedback. Depth of anesthesia was assessed every 15 minutes via the toc-pinch reflex and intraperitoneal ketamine was administered at 1/3 concentration of the induction dose for anesthesia maintenance. […]

[6] = test system: OSN subtypes (odorant receptors, ORs); assay: Act-Seq: scSeq of olfactory epithelium after two-hour odor exposure (IEG expression, activated ORs, activation score); assay type: in vivo, mouse
Procedure: Act-Seq (Wu et al., 2017) was performed following odor exposure to quantify odor-evoked responses in each OSN subtype (defined by their expressed OR) across the entire OR repertoire. Mice were habituated to a reversed light cycle for at least for 1 week before odor exposure, transferred to a new disposable cage with regular bedding/food and kept overnight in a satellite animal facility. On the experimental day, each mouse was first transferred to a new empty disposable cage during the dark cycle and habituated for 20 minutes. Empty cages were used to avoid any activation by odorants present within the environments in which the mice were housed. Odors were added to a piece of filter paper (100 μL of odorant) in a 35 mm petri dish and a cotton ball (200 μL of odorant) and placed in each cage. After 2 hours, mice were euthanized, and dissociation was performed as described below. Odors used in this study were as follows. Dipropylene glycol (DPG, control solvent), and 10% of acetophenone, octanal, 2-hydroxy acetophenone, 4-methyl acetophenone, and methyl salicylate. As a control, mice were exposed to DPG alone for 30 min. This control condition was used to account for any drift in transcriptomes during the overnight housing and habituation periods prior to odor exposure and designed to capture the transcriptome in the state it would have been in the odor-exposed animals prior to odor exposure. […] Act-Seq was also performed using lower concentrations of acetophenone (1.0, 0.1, 0.01%) and 2-hydroxy acetophenone (0.1%, 0.01%). All odor dilutions were made with DPG, and all odors and DPG were obtained from Sigma. To assess the persistence of any transcriptional changes observed as a result of odor exposure, a cohort of mice was exposed to acetophenone or DPG for 2 hours, transferred to new clean regular home cages, and subjected to scSeq after an additional 22 hours.
The main olfactory epithelium was dissected in Earle's Balanced Salt Solution (EBSS, pre-treated with carbogen for at least 5 minutes before each use, Worthington), then transferred to a round-bottomed glass dish containing 750 μL of papain solution (one vial of Papain (Worthington) dissolved in 5 mL of EBSS and then equilibrated 10 minutes at 37° C.) and 100 μL of DNase solution (one vial of DNase-I (Worthington) dissolved in 500 μL of EBSS). Bone was removed from the epithelium under a dissecting microscope and the resulting epithelial tissue was placed in a 5 mL tube (Becton Dickinson) with an additional 1.75 mL of Papain solution and 200 μL of DNase-I solution and rocked gently for-60 minutes at 37° C. The tissue was then gently triturated with a 5 mL pipette 10-15 times, passed through a 40 μm cell strainer (Becton Dickinson), and washed with 1 mL of Hibernate-A medium containing 10% Fetal Bovine Serum (FBS. GIBCO). Filtered cells were transferred to a new 5 mL tube and centrifuged 5 minutes at 300×g. The supernatant was decanted, the cells were washed once with 4 mL Hibernate-A containing 10% FBS and resuspended in 1 mL Hibernate-A containing 0.2% FBS. Importantly, each of the solutions above contained transcriptional inhibitors (5 μg/mL of Actinomycin D, 10 μg/mL of Anisomycin and 10 μM of Triptolide, all obtained from Sigma) for all experiments, especially the Act-Seq experiments, except where noted.
OSN subtypes that were responsive to odorants were identified via a two-step process. First, individual OSNs (as defined by the expressed OR) were determined as activated based on their mean z-scored immediate early genes (IEG) expression. A set of 10 IEGs were used (Btg2, Egr1, Fos, Fosb, Gm13889, Junb, Nr4a1, Nr4a2, Pcdh10, and Srxn1). […] The set of 10 IEGs was used since even though all of the IEGs were specific to acute activation by odors, they were still only detected in a minority of cells due to the sparse nature of scSeq. […]

2-hydroxyacetophenone
activation scores in OSNs expressing M72 [1]: higher activation scores than acetophenone
binding to the M72 receptor relative to acetophenone [2]: binds more strongly to the M72 receptor

OCCc1ccccc1 [2-phenylethanol]
activation of OR10A6 in vitro [3]: activated
mean total count normalized expression of 9 IEGs in OSNs expressing OR10A6 vs other ORs [4]: much higher IEG expression

CCCCC=O [Pentanal]
breadth of responses across the population of glomeruli [5]: broadest responses across the population of glomeruli

CCCCCCCC=O [octanal]
overlap between ORs activated by ACE and OCT, odds ratio ([6]; Fisher's exact test, overlap at chance levels): 1.42
z-scored expression of 10 immediate early genes (IEGs) for each OSN subtype, odor vs control ([6]; odor vs control (DPG) conditions): higher in the odor conditions
